From publication PMC7520961, “Safety evaluation of the interchangeable use of robenacoxib in commercially-available tablets and solution for injection in cats” (BMC Veterinary Research, 2020)

What was measured:
[1] = design: method as in PMID 19161452, PMID 23438125; settings: elimination in the cat; cited from earlier work
[2] = test system: cats; experiment: Buccal mucosal bleeding time (BMBT); format: in vivo; settings: one 2X cat
Procedure: Buccal mucosal bleeding times (BMBT) were measured on all animals on Days − 5 and 36 following ECG examinations while the animals were sedated. The upper lip was everted and a Surgicutt incision device was used to create a small incision (approximately 1 mm in depth and 3.5 mm in length). Blood flow from the incision site was blotted using filter paper below the incision. The elapsed time from the triggering of the device until blood no longer appeared on the filter paper was recorded as the bleed time. Clinical pathology evaluations were conducted on all animals on Days − 13 and − 6 and prior to dosing on Days 13 and 37. Because reference values given by the laboratory were (slightly) different for males and females, they were combined (i.e. lower of the two lower bounds to higher of the two upper bounds) for the tables. […] Hematology variables were determined using an Advia 120 or Advia 2120 (Siemens, Munich, Germany), light microscope, or sediplast column (Polymedco, NY, US). Coagulation variables were determined using a Stago Compact (Diagnostica Stago, Parsippany, NJ, US), clinical chemistry variables were determined using an Olympus AU2700 or AU640e (Olympus Diagnostics, Southall, UK), and urinalysis variables were determined using a Clinitek-500 or Atlas (Siemens, Munich, Germany), Reichert VET 360 (Reichert Technologies, Buffalo, New York, USA), or light microscope.

[3] = test system: healthy adult domestic short-hair cats; design: method as in ref 13 = [13]; 13. US Food and Drug Administration Freedom of Information Summary: Original New Animal Drug Application NADA 141–443 (Onsior Robenacoxib Injection Cats) 2015.; settings: 10 mg/kg robenacoxib solution for injection for three consecutive days; cited from earlier work
[4] = test system: cats; design: method as in ref 12 = [12]; 12. US Food and Drug Administration Freedom of Information Summary: Original New Animal Drug Application NADA 141–320 (Onsior Robenacoxib Tablets for Cats) 2011.; settings: six-month target animal safety study, oral robenacoxib at 1, 3 and 5X; cited from earlier work
[5] = test system: cats; settings: in vivo
[6] = test system: anesthetized cats; design: method as in ref 24 = [24]; 24. Panteri A Deurinck M Seewald W Gerber S King JN Desevaux C Safety of intravenous Robenacoxib (Onsior) in cats J Vet Pharmacol Ther 2015 38 S1 149; settings: single dose SC 2 mg/kg or 2 or 4 mg/kg IV, 5 or 60 min post administration; cited from earlier work
[7] = Dissolution of robenacoxib tablets with or without gelatin capsule; format: physicochemical; settings: by 40 minutes; tablets whether or not encapsulated in gelatin capsules; data not shown
[8] = test system: cats; settings: in vivo; remark: listed apart in the source
Procedure: Cageside observations were performed twice daily on all animals for morbidity, mortality, injury, and the availability of food and water. Detailed clinical observations were performed by trained technical staff twice per day beginning on Day − 2. Observations were at least six hours apart with the first occurring 1–2 hours after dose administration. Observations included, but were not limited to eyes, mucus membranes, respiratory system, circulatory system, autonomic and central nervous systems, somatomotor activity and behavior pattern. Body weight was measured on Day − 19 and weekly beginning Day − 14. Individual food consumption was measured daily beginning on Day − 7. Injection sites were evaluated for erythema, edema, heat, and pain response (i.e., vocalization upon palpation using a 3-point Likert scale) on each day of subcutaneous dosing prior to and 7 to 8 hours after dosing and once daily for three days following each dose administration. If any injection site was abnormal at the end of the observation period, additional assessments were carried out until the cat returned to normal or until end of the study.

[9] = test system: cats; settings: in vivo; remark: listed apart in the source
Procedure: Necropsies were performed in cage order. All animals were euthanized on Day 38 by intramuscular sedation with ketamine followed approximately 30 min later in a different room by an intravenous overdose of sodium pentobarbital solution and exsanguination, under procedures approved by a veterinary pathologist and according to the study site’s standard operating procedures. After a complete post-mortem evaluation, tissue samples were collected for histopathological analysis. Additionally, the following organs were weighed before tissues were collected: adrenal gland, aorta, brain, epididymis, heart, kidney, liver, lung with bronchi, ovary, pituitary, prostate, salivary gland (mandibular), spleen, testis, thymus, thyroid gland (with parathyroid), and uterus with cervix. In order to correct for body weight and size, the ratio of organ weight to body weight and brain weight was calculated for each animal. Tissues, including any gross lesions identified during the necropsy, were fixed in neutral buffered formalin, except the eye including optic nerve and testes were fixed using a modified Davidson’s fixative [36]. Tissue sections were stained with hematoxylin and eosin and evaluated by a board-certified veterinary pathologist. A bone marrow smear was collected from a rib at necropsy and analyzed qualitatively by a board-certified veterinary clinical pathologist.

SMILES: CCc1ccc(Nc2c(F)c(F)cc(F)c2F)c(CC(=O)O)c1 [robenacoxib]
- half-life [1]: less than 2 hours
- increase in BMBT value compared to pre-treatment value [2]: approximately seven-fold
- injection site observations [3]: transient, fluid-filled, painless enlargements at the injection sites that disappeared over a period of 72 hours
- microscopic findings at injection sites [3]: minimal subcutaneous inflammatory cell infiltration
- QT interval effect [4]: dose-dependent QT prolongation
- arrhythmias [4]: no arrhythmias were documented
- QT duration vs control (RR interval as covariate) [5]: No prolongation
- QT interval, average post-treatment [5]: approximately 160 ms
- QT interval, average pretest values [5]: approximately 140 ms
- mean baseline heart rate [5]: approximately 305 bpm
- mean heart rate post treatment [5]: 260-277 bpm
- qualitative assessment of electrocardiograms [5]: qualitatively normal
- electrocardiographic changes (including QT interval) [6]: no electrocardiographic changes
- robenacoxib dissolved [7]: approximately 93%
- Emesis [8]: observed once on Days 36 and 37
- duration of injection site edema post injection [8]: up to 120 hours
- injection site erythema, heat or pain [8]: no signs
- time to resolution of injection site changes [8]: ≤ 72 h
- occurrence of injection site edema vs control animals ([8]; sc): significantly higher
- Robenacoxib-related microscopic findings [9]: increased injection site subacute/chronic inflammation
- absolute liver weight increase compared to control [9]: 14%
- severity of injection site inflammation observations [9]: minimal
